Here are results for three compounds from patent US8895260B2, “Screening assay for ribosomal antibiotics” (priority 2006, dated 2014).

What all share (type): cell-based, Mycobacterium smegmatis
In assay [1] the test system is mutant bacterial cells 1408G. The experiment in a line: MIC of rRNA mutants, mutant bacterial cells 1408G (human cytoplasmic nucleotide at 16S rRNA position 1408). As for the experimental part: (§1) The recombinants carrying the respective mutational alterations in the functional rRNA operon were colony-purified and subjected to determinations of minimal inhibitory concentrations (MIC) to determine ribosomal drug susceptibility. Cultures from single colonies were grown in LB medium supplemented with 0.05% Tween 80 and used for MIC tests in a microtiter plate format. Starting cultures contained 200 μl of bacterial cells at an optical density of 0.025 at 600 nm, and the respective drug was added in twofold series of dilution.
(§2) This was illustrated by the polymorphism of 16S rRNA position 1408 and susceptibility to 4,6-aminoglycosides with a 6′ NH3 group (e.g. gentamicin, tobramycin, kanamycin). 4,6-aminoglycosides with a 6′ NH3 group bound to the ribosomal A-site encompassing nucleotides […] and selectively targeted the bacterial ribosome, but not the eukaryotic cytoplasmic ribosome. An important polymorphism in the rRNA concerns nucleotide position 1408: prokaryotic ribosomes are characterized by an adenine, eukaryotic cytoplasmic ribosomes by a guanine. Replacing the adenine by a guanine at 16S rRNA position 1408 made the bacterial ribosome completely unsusceptible towards 4,6-amino-glycosides with a 6′ NH3 group (see Table). […]

In assay [2] the test system is wild type bacterial cells 1408A. The experiment in a line: MIC of rRNA mutants, wild type bacterial cells 1408A. How it is done: as §1, §2
Assay [3] concerns bacterial hybrid ribosomes carrying Leishmania Trypanosoma rRNA decoding site. The experiment in a line: MIC, bacterial hybrid ribosomes carrying protozoan rRNA decoding site. Set-up: unit not given here. The following applies: Leishmania Trypanosoma decoding site in bacterial hybrid ribosome. As for the experimental part: as §1
(§3) The MIC data shown below in example 5 were obtained with bacterial hybrid ribosomes carrying human and protozoan rRNA decoding sites in a method of the invention. […] Nucleotide positions depicted in bold represent residues that are specific for the corresponding eukaryotic decoding site. The part of the human and protozoan decoding sites introduced into the bacterial ribsosome is boxed. The nucleotide positions are numbered according to the numbering of homologous positions in E. coli 16S rRNA.

Assay [4] relates to bacterial hybrid ribosomes carrying Homo sapiens mitochondrion rRNA decoding site. Description: MIC, bacterial hybrid ribosomes carrying human mitochondrial rRNA decoding site. Set-up: unit not given here. To be noted: Homo sapiens mitochondrion decoding site in bacterial hybrid ribosome. How it is done: as §1, §3
In assay [5] the test system is M. smegmatis. Description: MIC, M. smegmatis with bacterial rRNA decoding site. Set-up: unit not given here. How it is done: as §1, §3

As to `NC[C@H]1O[C@H](O[C@H]2[C@H](O)[C@@H](O[C@H]3O[C@H](CO)[C@@H](O)[C@H](N)[C@H]3O)[C@H](N)C[C@@H]2N)[C@H](N)C[C@@H]1O` [Tobramycin], the MIC in assay [1] (Mycolicibacterium smegmatis, CELLS1408G, 72 h, read-out: MIC, minimal inhibitory concentration) was over 1020 µg/mL; in assay [2] (Mycolicibacterium smegmatis, 72 h, read-out: MIC, minimal inhibitory concentration) it was 2 µg/mL.
As for Gentamicin, the MIC in assay [3] is reported as over 1024; in assay [4], 64-128; in assay [5], 1. Besides, the “MIC, minimal inhibitory concentration” value in assay [1] (mutant bacterial cells 1408G, 72h at 37° C.) was over 1024 µg/mL; in assay [2] (wild type bacterial cells 1408A, 72h at 37° C.), 1 µg/mL.
As to Neomycin, the MIC in assay [3] is over 1024; in assay [4] it was 16-32; in assay [5], 0.5.
